Data on eleven substances can be found in patent publication US7737125B2, “LNA antagonists targeting the androgen receptor” (Enzon Pharamaceuticals, Inc., priority 2007, dated 2010).

Strand notation (5' to 3'): a small letter for the sugar, then the base; units joined by * are phosphorothioate-linked, units joined directly phosphodiester-linked; [ ] holds rarer units or linkages, { } end groups; capitals alone tell only the bases. l = locked nucleic acid (LNA); [5mC] = 5-methylcytosine; d = 2'-deoxy (DNA)

Series [1] has as its system human androgen receptor mRNA. In words: Inhibition of androgen receptor mRNA expression in MCF7 cells, real-time PCR after transfection. Type of series: cell-based. The following applies: 16 nM oligonucleotide, AR mRNA normalised to GAPDH, down-regulation relative to mock transfected cells. As to the method: FIG. 1. Oligonucleotides presented in Table 3 were evaluated for their potential to knockdown the androgen receptor mRNA at concentrations of 1, 4 and 16 n-M in MCF7 cells 24 hours after transfection using Real-time PCR. All results were normalised to GAPDH and inhibition of AR mRNA is shown as percent of untreated control. Results shown are an average of three independent experiments.
MCF7 The human breast cancer cell line MCF7 was cultured in EagleMEM (Sigma)+10% fetal bovine serum (FBS)+2 mM Glutamax I+1×NEAA+gentamicin (25 μg/ml).
(§1) The cell lines listed in Example 4 were treated with an oligomer using the cationic liposome formulation LipofectAMINE 2000 (Gibco) as transfection vehicle. Cells were seeded in 6-well cell culture plates (NUNC) and treated when 80-90% confluent. Oligomer concentrations used ranged from 1 nM to 16 nM final concentration. Formulation of oligomer-lipid complexes were carried out essentially as described by the manufacturer using serum-free OptiMEM (Gibco) and a final lipid concentration of 5 μg/mL LipofectAMINE 2000. Cells were incubated at 37° C. for 4 hours and treatment was stopped by removal of oligomer-containing culture medium. Cells were washed and serum-containing media was added. After oligomer treatment, cells were allowed to recover for 20 hours before they were harvested for RNA analysis.
(§2) Total RNA was extracted from cells transfected as described above and using the Qiagen RNeasy kit (Qiagen cat. no. 74104) according to the manufacturer's instructions. First strand synthesis was performed using Reverse Transcriptase reagents from Ambion according to the manufacturer's instructions.
(§3) For each sample, the volume of 0.5 •g total RNA was adjusted to 10.8 •l with RNase free H2O and mixed with 2 •l random decamers (50 •M) and 4 •l dNTP mix (2.5 mM each dNTP) and heated to 70° C. for 3 min, after which the samples were rapidly cooled on ice. After cooling the samples on ice, 2 •l 10× Buffer RT, 1 •l MMLV Reverse Transcriptase (100 U/•l) and 0.25 •l RNase inhibitor (10 U/•l) were added to each sample, followed by incubation at 42° C. for 60 min, heat inactivation of the enzyme at 95° C. for 10 min and then cooling of the sample to 4° C.
(§4) The amount of human androgen receptor mRNA in the samples was quantified using the human androgen receptor ABI Prism Pre-Developed TaqMan Assay Reagents (Applied Biosystems cat. no. Hs00171172_m1) according to the manufacturer's instructions.
(§5) Glyceraldehyde-3-phosphate dehydrogenase (GAPDH) mRNA quantity was used as an endogenous control for normalizing any variance in sample preparation.
(§6) The cDNA from the first strand synthesis performed as described in Example 6 was diluted 2-20 times, and analyzed by real time quantitative PCR using Taquman 7500 FAST or 7900 FAST from Applied Biosystems. The primers and probe were mixed with 2× Taqman Fast Universal PCR master mix (2×) (Applied Biosystems Cat. #4364103) and added to 4 μl cDNA to a final volume of 10 μl. Each sample was analysed in duplicate. Standard curves were generated by assaying 2-fold dilutions of a cDNA that had been prepared on material purified from a cell line expressing the RNA of interest. Sterile H2O was used instead of cDNA for the no-template control. PCR program: 95° C. for 30 seconds, followed by 40 cycles of 95° C., 3 seconds, 60° C., 20-30 seconds. Relative quantities of target mRNA were determined from the calculated Threshold cycle using the Applied Biosystems Fast System SDS Software Version 1.3.1.21. or SDS Software Version 2.3.
(§7) Oligonucleotides presented in Table 3 were evaluated for their potential to knock down androgen receptor mRNA expression at concentrations of 1, 4 and 16 nM (see FIGS. 1 and 2).
(§8) The data in Table 3 are presented as percentage down-regulation relative to mock transfected cells at 16 nM. Lower case letters represent DNA monomers, bold, upper case letters represent β-D-oxy-LNA monomers. All cytosine bases in the LNA monomers are 5-methylcytosines. […]
(In general: In qPCR the cycle at which signal appears reflects the starting amount.)

Series [2] concerns human androgen receptor mRNA. Description: Inhibition of androgen receptor mRNA expression in A549 cells, real-time PCR after transfection. The series is classed as cell-based. The following applies: 16 nM oligonucleotide, AR mRNA normalised to GAPDH, down-regulation relative to mock transfected cells. On the procedure: FIG. 2. Oligonucleotides presented in Table 3 were evaluated for their potential to knockdown the androgen receptor mRNA at concentrations of 1, 4 and 16 nM in A549 cells 24 hours after transfection using Real-time PCR. All results were normalised to GAPDH and inhibition of AR mRNA is shown as percent of untreated control. Results shown are an average of three independent experiments.
A549 The human lung cancer cell line […] was cultured in DMEM (Sigma)+10% fetal bovine serum (FBS)+2 mM Glutamax I+gentamicin (25 μg/ml).
as §1, §2, §3, §4, §5, §6, §7, §8

On to “5′-GsAsAsgststscsastscsasasasGsAsA-3′ (antisense lG*lA*lA*dG*dT*dT*dC*dA*dT*dC*dA*dA*dA*lG*lA*lA) [SEQ ID NO: 68, LNA gapmer antisense oligonucleotide]”, for which, in series [1], the “Percent inhibition of Androgen receptor - MCF7” value (from here on “Percent inhibition … - MCF7”) amounted to 88.2%. Besides, the “Percent inhibition of Androgen receptor - A549” value (from here on “Percent inhibition … - A549”) in series [2] is 85.6%.
Turning to “5′-GsAsGsasascscsastscscstscsAsCsC-3′ (antisense lG*lA*lG*dA*dA*dC*dC*dA*dT*dC*dC*dT*dC*lA*l[5mC]*l[5mC]) [SEQ ID NO: 44]”, in series [1], the “Percent inhibition … - MCF7” value is listed as 80.1%. The “Percent inhibition … - A549” value in series [2] is 63.8%.
Consider “5′-CsCsCscstsgsgsascstscsasgsAsTsG-3′ (antisense l[5mC]*l[5mC]*l[5mC]*dC*dT*dG*dG*dA*dC*dT*dC*dA*dG*lA*lT*lG) [SEQ ID NO: 46, LNA gapmer antisense oligonucleotide]”, for which, in series [1], the “Percent inhibition … - MCF7” value was found to be 89.4%. The “Percent inhibition … - A549” value in series [2] was determined as 82.8%.
The like results for “5′-GsCsTststscsastsgscsascsasgsGsA-3′ (antisense lG*l[5mC]*lT*dT*dT*dC*dA*dT*dG*dC*dA*dC*dA*dG*lG*lA) [SEQ ID NO: 67, LNA gapmer antisense oligonucleotide]” were, in that order, 83.5% and 97.0%.
The corresponding values for “5′-CsTsTsgsgscscscsascststsgsAsCsC-3′ (antisense l[5mC]*lT*lT*dG*dG*dC*dC*dC*dA*dC*dT*dT*dG*lA*l[5mC]*l[5mC]) [SEQ ID NO: 61, LNA gapmer antisense oligonucleotide]” are 86.7% and 93.3%.
The like results for “5′-GsCsAscsasasgsgsasgstsgsgsGsAsC-3′ (antisense lG*l[5mC]*lA*dC*dA*dA*dG*dG*dA*dG*dT*dG*dG*lG*lA*l[5mC]) [SEQ ID NO: 47, LNA gapmer antisense oligonucleotide]” were, in that order, 83.1% and 77.7%.
For “5′-CsAsTscscsasasascstscststsGsAsG-3′ (antisense l[5mC]*lA*lT*dC*dC*dA*dA*dA*dC*dT*dC*dT*dT*lG*lA*lG) [SEQ ID NO: 66, LNA gapmer antisense oligonucleotide]”, the “Percent inhibition … - MCF7” value in series [1] amounted to 79.8%. Also, the “Percent inhibition … - A549” value in series [2] was determined as 95.3%.
The corresponding values for “5′-TsTsGscsascsasgsasgsastsgsAsTsC-3′ (antisense lT*lT*lG*dC*dA*dC*dA*dG*dA*dG*dA*dT*dG*lA*lT*l[5mC]) [SEQ ID NO: 72, LNA gapmer antisense oligonucleotide]” are 79.2% and 90.4%.
The like results for “5′-GsGsAscscsasgsgstsasgscscsTsGsT-3′ (antisense lG*lG*lA*dC*dC*dA*dG*dG*dT*dA*dG*dC*dC*lT*lG*lT) [SEQ ID NO: 45, LNA gapmer antisense oligonucleotide]” were, in that order, 89.0% and 88.2%.
On to “5′-CsAsGsgscsasgsasasgsascsasTsCsT-3′ (antisense l[5mC]*lA*lG*dG*dC*dA*dG*dA*dA*dG*dA*dC*dA*lT*l[5mC]*lT) [SEQ ID NO: 76, LNA gapmer antisense oligonucleotide]”, for which the “Percent inhibition … - MCF7” value in series [1] is recorded as 85.9%. The “Percent inhibition … - A549” value in series [2] turned out to be 94.3%.
As for “5′-TsCsCstsgsgsasgststsgsascsAsTsT-3′ (antisense lT*l[5mC]*l[5mC]*dT*dG*dG*dA*dG*dT*dT*dG*dA*dC*lA*lT*lT) [SEQ ID NO: 62, LNA gapmer antisense oligonucleotide]”, in series [1], the “Percent inhibition … - MCF7” value was found to be 81.3%. Moreover, the “Percent inhibition … - A549” value in series [2] is 93.0%.
